From patent publication US10933049B2, “Mobilizing agents and uses therefor” (The University of Queensland, priority 2015, dated 2021) come the findings set out here.

In one experiment the target is T1, C3aR (Mus musculus, UniProt O09047).
T1 construct: endogenous in cells; host or cells: B16-F0 murine melanoma cells (ATCC CRL6322)
T1 sequence (O09047 1-477): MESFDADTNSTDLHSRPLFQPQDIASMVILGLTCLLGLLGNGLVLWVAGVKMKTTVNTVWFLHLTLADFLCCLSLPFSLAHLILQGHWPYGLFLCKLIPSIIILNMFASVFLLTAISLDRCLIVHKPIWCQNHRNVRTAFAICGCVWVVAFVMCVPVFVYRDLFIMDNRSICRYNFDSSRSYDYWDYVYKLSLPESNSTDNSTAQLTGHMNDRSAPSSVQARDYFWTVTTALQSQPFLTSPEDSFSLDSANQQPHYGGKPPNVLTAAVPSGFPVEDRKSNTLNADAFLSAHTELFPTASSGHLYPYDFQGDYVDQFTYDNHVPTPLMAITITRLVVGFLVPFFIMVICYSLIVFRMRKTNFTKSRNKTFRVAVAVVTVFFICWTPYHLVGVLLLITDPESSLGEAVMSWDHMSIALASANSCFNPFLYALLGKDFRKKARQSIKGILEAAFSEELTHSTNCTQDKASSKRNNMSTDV
As to the kind of experiment: Calcium mobilization in B16 cells. The format is cell-based, murine. Particulars: cultured B16 cells. A general note: A change in cytosolic calcium serves as a functional read-out for many receptors and channels.

Experiment [1] has as its system ERK and AKT signaling pathways. The experiment can be described thus: Western analysis of ERK and AKT phosphorylation in B16 cells. The format is cell-based, murine. Particulars: cultured B16 cells, 0-60 min. As for the experimental part: B16 cells were treated with recombinant human C3a (10 nM) or the selective mouse C3aR agonist WWGKKYRASKLGLAR [SEQ ID NO: 5] (Proctor et al., 2009; Wu et al., 2013) for the times indicated in the experiment. After treatment, crude protein extracts were obtained by disrupting the cells in RIPA lysis buffer. Samples were subjected to SDS-PAGE (Laemmli, 1970), then separated proteins electrotransferred (Towbin et al., 1979) to a PVDF membrane. Membranes were incubated with antibodies to anti-phospho-AKT, anti-total AKT (Cell Signaling, Danvers, Mass.), mouse anti-diphosphorylated ERK1/2 and rabbit anti-total ERK1/2 (Sigma-Aldrich) followed by fluorescently-labelled secondary antibodies (IR Dye 800CW-goat anti-mouse Ig and IR Dye 680LT anti-rabbit Ig; Li-Cor Biosciences). Immunoreactive bands were visualized by scanning on an Odyssey Imaging System (Li-Cor Biosciences) and the percentage phosphorylated protein relative to total protein determined using Odyssey V3.0 image analysis software.

The next experiment has as its system B16 melanoma. As to the kind of experiment: B16 melanoma growth and survival in mice. The format is in vivo. Particulars: for survival (time until tumors reach maximal size): C3aRA vs vehicle. As to the method: (§1) WT or C3aR^−/− mice were injected subcutaneously (s.c.) with B16-F0 melanoma (2.5×10^5 cells/mouse) or MC38 colon carcinoma (1×10^6 cells/mouse); female BALB/c mice were injected into the mammary fat pad with 4T1 mammary carcinoma (5×10^5 cells/mouse). Tumor growth was monitored daily from day 5 after tumor cell injection. For some experiments, C57BL/63 mice received daily injections of either C3aR antagonist (SB290157; VDM Biochemicals, Bedford Heights, Ohio; diluted in saline, 1 mg/kg/day i.p.,), C5aR antagonist (PMX53; produced in-house; 1 mg/kg/day) or vehicle only (0.9% saline or 5% glucose solution) control, commencing once tumors became palpable (approx. day 7 after tumor cell injection). For most experiments, mice were euthanized at day 14 (or once the largest tumor reached an area of approx. 200 mm^2), blood was collected by cardiac puncture, tumors, spleen, draining lymph nodes (inguinal, axillary and brachial) and femurs excised for FACS or immunostaining; tumors were weighed. For ‘survival’ studies, the time taken for each tumor to reach a pre-determined size (150 mm^2) was recorded, then mice euthanized.

Another experiment deals with leukocyte populations. The experiment can be described thus: Flow cytometric analysis of leukocyte populations in B16 tumor-bearing mice. The class given is in vivo. Particulars: vs vehicle. As to the method: as §1
Single cell suspensions of blood, tumor, spleen and lymph node and bone marrow cell were prepared for surface staining with antibodies to mouse CD45, F4/80, CD11b, Ly6G, Gr-1, CD3, CD4, CD8a (all from Biolegend, San Diego, Calif.). Staining for Tregs was carried out using a FoxP3 Fix/Perm kit (BioLegend), according to manufacturer's instructions. For Th1, Th2, Th17 staining, cells were stimulated with phorbol 12-myristate 13-acetate (PMA; 50 ng/ml; Sigma) and ionomycin (1 μM; Sigma) in the presence of Brefeldin A (5 μg/ml; BioLegend) for 4 h at 37° C. After surface staining, cells were fixed and permeabilized for staining of intracellular cytokines; IL-4, IL-17A or IFN-γ (all from BioLegend). Flow cytometry was performed using an Accuri C6 flow cytometer (BD Biosciences) and data analysis with FlowJo software (Tree Star, Inc., Ashland, Oreg.). Details are provided in Supplemental Experimental Procedures.

The next experiment deals with 4T1 mammary carcinoma. As to the kind of experiment: 4T1 mammary carcinoma growth in BALB/c mice. The format is in vivo. Particulars: female BALB/c mice, 1 mg/kg/day i.p. from day 0, vs saline. As for the experimental part:
as §1, with “For some experiments, C57BL/63 mice received daily injections of either C3aR antagonist (SB290157; VDM Biochemicals, Bedford Heights, Ohio; diluted in saline, 1 mg/kg/day i.p.,), C5aR antagonist (PMX53; produced in-house; 1 mg/kg/day) or vehicle only (0.9% saline or 5% glucose solution) control, commencing once tumors became palpable (approx. day 7 after tumor cell injection).” left out

Experiment [2] concerns B16 melanoma cells. As to the kind of experiment: B16 tumor cell proliferation. The class given is cell-based, murine.
Experiment [3] concerns B16 melanoma cells. As to the kind of experiment: Cell migration assay (scratch) of B16 cells. The class given is cell-based, murine. The following applies: 10^-6 mol/L, 24 hours. As for the experimental part:
Cells were seeded at confluence (2×10^5 cells/cm^2) into a 24 well plate, adhered overnight and then confluent monolayers scratched with a pipette tip before being treated for 24 hours with C3aR agonist (10^−6 mol/L); control wells were incubated with medium alone or containing 5% FCS. Migration was quantified by measuring cell-free areas at day 0 and 24 hours using Image-J software (NIH, Bethesda, Md., USA).

The next experiment deals with CD11b+Ly6G+ neutrophils. As to the kind of experiment: Neutrophil mobilization by G-CSF in wild-type and C3aR-/- mice. The class given is in vivo. The following applies: 120 μg/kg i.v., 2 hours. As to the method: Wild-type, or C3aR^−/− mice were injected i.v. with G-CSF (Lenograstim; 120 μg/kg), or vehicle (saline). Blood was collected after 2 hours, and CD11b+Ly6G+ neutrophils analyzed using flow cytometry for CD11b+ and Ly6G+.

Setting [4] is: established B16 melanoma, C57BL/6J mice, 1 mg/kg/day i.p. from day 7, vs vehicle.

“Also recorded” adds a separate entry of the source.

“recombinant human C3a: recombinant human C3a used to stimulate B16 cells”: the calcium mobilization response entry with C3aR is listed as “failed to initiate a calcium mobilization response”. Also, the “ERK and AKT signaling pathways” value in experiment [1] was “activated”.

As to PMX53, the “reduction in tumor growth observed in C3aR-/- mice” value in the experiment with B16 melanoma (C3aR-/- mice, B16 melanoma, 1 mg/kg/day s.c. once tumors palpable) was “not enhanced”. The melanoma growth entry in the experiment with B16 melanoma (WT mice, B16 melanoma, 1 mg/kg/day s.c. once tumors palpable, vs vehicle) is “inhibited melanoma growth”.

Consider `N=C(N)NCCC[C@H](NC(=O)COCC(c1ccccc1)c1ccccc1)C(=O)O` [SB290157, N^2-[(2,2-diphenylethoxy)acetyl]-1-arginine], for which the “survival (time until tumors reach maximal size)” value in the experiment on B16 melanoma (B16 melanoma) is listed as “significantly improved”. In addition, the “survival (time until tumors reach maximal size)” value in the experiment on B16 melanoma (B16 melanoma, listed as C3aRA) is on record as “increased survival”. The excised tumor weights entry in the experiment on B16 melanoma (B16 melanoma, day 14, 1 mg/kg/day i.p. from day 7, vs vehicle) was “significantly smaller”. Besides, in the experiment on B16 melanoma (setting [4]), the tumor area entry was “significantly smaller than in the vehicle-treated control group” and the tumor progression result is “dramatically retarded”. In addition, in the experiment on leukocyte populations (blood), the Tregs entry is on record as “reduction” and the neutrophils entry was “significant increase”. Further, in the experiment with leukocyte populations (bone marrow), the MDSC entry is “significantly lower”, the monocytes entry was “significantly lower” and the neutrophils entry was “significantly lower”. In addition, in the experiment with leukocyte populations (draining lymph nodes), the Th2 cells entry is on record as “significantly increased”, the macrophages entry is recorded as “not significantly different”, the monocytes entry is “not significantly different” and the neutrophils entry is “not significantly different”. Further, in the experiment on leukocyte populations (draining lymph nodes), the “percentage of CD4+ T lymphocytes” value is listed as “significantly increased” and the “percentage of CD8+ T lymphocytes” value is recorded as “significantly increased”. In addition, in the experiment with leukocyte populations (spleen), the “CD4+ lymphocytes” value is “significantly higher”, the MDSC entry is “significantly lower”, the Th2 cells entry is listed as “significant increases” and the Treg cells result is “significant increases”. Further, in the experiment on leukocyte populations (spleen), the proportion of macrophages entry was “not significantly altered”, the proportion of monocytes result is listed as “not significantly altered”, the proportion of neutrophils result is given as “not significantly altered” and the total lymphocytes result was “significantly higher”. In addition, in the experiment on leukocyte populations (tumor tissue, 1 mg/kg/day), the “percentage of CD4+ T lymphocytes” value is recorded as “higher”, the “percentage of Th1 subset” value is listed as “significantly increased”, the “percentage of Th2 subset” value was “significantly increased” and the “percentage of Th17 subset” value is “significantly increased”. Besides, in the experiment on leukocyte populations (tumor tissue, 1 mg/kg/day), the “percentage of total T lymphocytes” value is “higher”, the “percentage of tumor-infiltrating neutrophils” value is reported as “increased”, the “proportion of MDSC” value is given as “not significantly altered” and the tumor-associated macrophages result is “reduced”. In the experiment on 4T1 mammary carcinoma, the tumor growth entry is “significant inhibition of tumor growth”.

“WWGKKYRASKLGLAR (listed as Homo sapiens) [selective C3aR agonist]”: the tumor cell proliferation result in the experiment on B16 melanoma cells [2] is “no significant effect”. The calcium mobilization response entry with C3aR was “failed to initiate a calcium mobilization response”. Besides, the “ERK and AKT signaling pathways” value in experiment [1] is listed as “activated”. Further, the cell migration entry in the experiment with B16 melanoma cells [3] was “significantly increased”.

B1: G-CSF: granulocyte-colony stimulating factor (Lenograstim), stem cell-mobilizing agent (protein, UniProt P09919 31-207, looked up)
Granulocyte …: TPLGPASSLPQSFLLKCLEQVRKIQGDGAALQEKLVSECATYKLCHPEELVLLGHSLGIPWAPLSSCPSQALQLAGCLSQLHSGLFLYQGLLQALEGISPELGPTLDTLQLDVADFATTIWQQMEELGMAPALQPTQGAMPAFASAFQRRAGGVLVASHLQSFLEVSYRVLRHLAQP
With B1, in the experiment on CD11b+Ly6G+ neutrophils, the “blood CD11b+Ly6G+ (anti-tumor) neutrophils in C3aR-/- mice compared with saline” value is “significantly enhanced; also recorded: significant (P=0.0079) increase” and the “mobilization of blood neutrophils, C3aR-/- compared with wild-type mice” value was “significantly (P=0.0056) greater mobilization of neutrophils”.
